EC50 and Activity data for 18 compounds are collected here from ChEMBL document CHEMBL4808180, “Identification of 2,2-Dimethylbutanoic Acid (HST5040), a Clinical Development Candidate for the Treatment of Propionic Acidemia and Methylmalonic Acidemia” (J Med Chem, 2021).

The nature of assay [1]: Reduction of propionyl-CoA in human hepatocytes derived from propionic acidemia patient pretreated for 30 mins followed by 13C-isoleucine addition and measured after 1 hr by MS/MS analysis. It is filed as functional, cell-based. The conditions noted are these: hepatocyte.
A short description of assay [2]: Reduction of propionyl-CoA in human hepatocytes derived from propionic acidemia patient at 100 uM pretreated for 30 mins followed by 13C-isoleucine addition and measured after 1 hr by MS/MS analysis relative to control. Also on record: scale not given: the % may be the effect or the level left. Type of assay: functional, Hepatocyte. The conditions noted are these: time 90 min, 1.5 h.

On to `CCCC(C)C(=O)O` (stereo unspecified), for which the EC50 in assay [1] was 12.6 µM. In addition, in assay [2], the Activity is 77%.
For `CC(CCO)C(=O)O` (stereo unspecified), the EC50 in assay [1] is more than 100 µM. In addition, in assay [2], the Activity was determined as 66%.
The like results for `CCC(CC)C(=O)O` were, in that order, 33.7 µM and 67%.
The like results for `CCCC(CCC)C(=O)OC` were, in that order, more than 100 µM and 63%.
As to `O=C(O)C1CCCC1`, in assay [1], the EC50 is 12.3 µM. Moreover, the Activity in assay [2] was determined as 42%.
Taken in the same sequence, the figures for `O=C(O)C1CCC1` were 55.4 µM and 49%.
Taken in the same sequence, the figures for `O=C(O)CCCC(F)(F)F` were 9.91 µM and 65%.
Taken in the same sequence, the figures for `CC1(CC(=O)O)CC1` were 15.5 µM and 65%.
For the compound `CCC(C)(C)C(N)=O`, the EC50 in assay [1] is more than 100 µM. Also, in assay [2], the Activity is given as 57%.
Regarding `CSCCCC(=O)O`, the EC50 in assay [1] came to 18.9 µM. Further, in assay [2], the Activity came to 78%.
The like results for `CCCC(CC)C(=O)O` (stereo unspecified) were, in that order, 1.23 µM and 98%.
Turning to `COCC(C)(C)C(=O)O`, the concentration giving a half-maximal response (EC50) in assay [1] was 2.69 µM. Also, the Activity in assay [2] is given as 75%.
Consider `CNCCC(=O)O`, for which, in assay [1], the half-maximal effective concentration (EC50) amounted to 6.55 µM. In assay [2], the Activity came out at 64%.
The like results for `CCCC(C)(C)C(=O)O` were, in that order, 0.76 µM and 96%.
On to `CCC(C)(C)C(=O)OC`, for which the EC50 in assay [1] was determined as 1.73 µM. Also, in assay [2], the Activity came out at 91%.
The like results for `O=C(O)C1CC1` [CYCLOPROPANE CARBOXYLIC ACID] were, in that order, 23.3 µM and 66%.
Taken in the same sequence, the figures for `CC(C)(C)C(=O)O` [PIVALATE] were 5.53 µM and 77%.
Taken in the same sequence, the figures for `CC(C)(C)CC(=O)O` [T-BUTYLACETIC ACID] were 0.91 µM and 97%.
